Among the data in patent publication EP0338634B1, “Viper venom polypeptides and genetic expression” (Merck & Co., Inc., priority 1988, dated 1989) are IC50 values, retold here.

Bridge positions count the residues as written; N and C are the ends. Square brackets hold non-standard residues; d marks the D form. Ends that are not written are not given here. Peptide text beside a SMILES is read from it. Met(O) = CS(=O)CC[C@H](N)C(=O)O

human platelet aggregation, sequence (P08514 32-1039): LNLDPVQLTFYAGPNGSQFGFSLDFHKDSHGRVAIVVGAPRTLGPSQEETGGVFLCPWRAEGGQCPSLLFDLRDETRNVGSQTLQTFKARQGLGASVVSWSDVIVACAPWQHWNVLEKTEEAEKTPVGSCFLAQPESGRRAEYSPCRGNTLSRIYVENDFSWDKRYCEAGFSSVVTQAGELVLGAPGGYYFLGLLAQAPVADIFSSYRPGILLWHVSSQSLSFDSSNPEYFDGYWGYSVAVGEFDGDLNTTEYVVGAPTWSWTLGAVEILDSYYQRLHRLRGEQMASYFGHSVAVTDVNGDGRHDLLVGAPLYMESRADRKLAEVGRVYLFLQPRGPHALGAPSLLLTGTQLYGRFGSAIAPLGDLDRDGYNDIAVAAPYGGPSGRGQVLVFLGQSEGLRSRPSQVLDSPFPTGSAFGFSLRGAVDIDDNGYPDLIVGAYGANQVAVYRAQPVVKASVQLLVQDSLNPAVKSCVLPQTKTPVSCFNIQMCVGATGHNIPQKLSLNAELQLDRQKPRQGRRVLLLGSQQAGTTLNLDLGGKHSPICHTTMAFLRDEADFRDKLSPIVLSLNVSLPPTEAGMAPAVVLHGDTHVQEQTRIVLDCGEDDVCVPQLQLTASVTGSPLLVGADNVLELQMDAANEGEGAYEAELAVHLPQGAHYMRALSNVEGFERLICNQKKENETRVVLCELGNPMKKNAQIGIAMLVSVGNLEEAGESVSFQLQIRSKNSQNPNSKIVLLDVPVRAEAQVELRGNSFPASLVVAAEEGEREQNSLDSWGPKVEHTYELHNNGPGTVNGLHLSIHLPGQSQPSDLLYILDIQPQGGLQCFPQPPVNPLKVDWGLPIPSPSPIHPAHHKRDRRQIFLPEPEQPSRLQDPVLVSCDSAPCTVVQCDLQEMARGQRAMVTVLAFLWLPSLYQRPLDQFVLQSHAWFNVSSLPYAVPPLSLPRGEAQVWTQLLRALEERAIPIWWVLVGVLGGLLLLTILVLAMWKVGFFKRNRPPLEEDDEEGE
human platelet aggregation, sequence (P05106 27-788): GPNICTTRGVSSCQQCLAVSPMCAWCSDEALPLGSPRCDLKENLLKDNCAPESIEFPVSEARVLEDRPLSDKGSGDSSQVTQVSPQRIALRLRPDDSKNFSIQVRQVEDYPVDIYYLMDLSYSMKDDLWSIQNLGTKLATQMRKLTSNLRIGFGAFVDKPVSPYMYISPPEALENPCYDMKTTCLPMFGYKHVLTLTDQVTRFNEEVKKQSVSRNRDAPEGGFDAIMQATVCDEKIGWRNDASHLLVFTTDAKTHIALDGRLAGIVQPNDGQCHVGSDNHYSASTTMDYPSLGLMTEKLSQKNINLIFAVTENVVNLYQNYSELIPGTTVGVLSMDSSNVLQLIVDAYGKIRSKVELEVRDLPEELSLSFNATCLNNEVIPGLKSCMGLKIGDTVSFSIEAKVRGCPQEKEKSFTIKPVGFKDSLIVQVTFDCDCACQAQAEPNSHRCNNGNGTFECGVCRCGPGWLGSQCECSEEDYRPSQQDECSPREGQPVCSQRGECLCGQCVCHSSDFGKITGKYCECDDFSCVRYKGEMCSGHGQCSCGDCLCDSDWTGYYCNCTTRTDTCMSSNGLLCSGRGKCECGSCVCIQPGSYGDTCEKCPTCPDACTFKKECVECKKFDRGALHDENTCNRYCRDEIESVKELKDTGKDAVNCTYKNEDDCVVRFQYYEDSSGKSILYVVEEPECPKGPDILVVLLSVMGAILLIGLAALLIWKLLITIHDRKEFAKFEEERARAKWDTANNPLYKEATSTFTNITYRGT

The first assay has as its target human platelet aggregation (Homo sapiens, UniProt P05106+P08514). Nature of the assay: Platelet aggregation assay for synthetic echistatin and analogs (chronolog aggregometer). Format: cell-based. Particulars: human platelet aggregation; Table 5; read-out: IC₅₀(µM)(95% CONFIDENCE LIMITS). On the procedure:
Platelet aggregation was measured at 37°C in a chronolog aggregometer. The reaction mixture contained washed platelets (2 x 10⁸/ml), fibrinogen ([…]), Ca²⁺ (1 mM), and the platelet aggregation inhibitor fraction to be tested The aggregation was initiated by adding […] ADP 1 min after the other components had been added. The reaction was allowed to proceed for at least 2 min. The extent of inhibition of aggregation was expressed as the percentage of the rate of aggregation observed in the absence of inhibitor. […]
The concentration of peptide necessary to inhibit the rate of human platelet aggregation by 50% (IC₅₀) was determined using platelets from 2-4 donors. Determinations were performed in duplicate for each donor.
With “H-ECESGPCCRNCKFLKEGTICKRARGDFLDDYCNGKTCDCPRNPHKGPAT-OH (disulfide 2-11, 7-32, 8-37, 20-39) [Example 10, phe 27, leu 28-echistatin]”, the IC50 was 0.016 µM.
In the case of “H-ECESGPCCRNCKFLKEGTICKRARGDDMDDYCNGKTCDCPRNP-NH2 (disulfide 2-11, 7-32, 8-37, 20-39) [Example 17, (1-43)-echistatin amide]”, the IC50 is 0.081 µM.
Same read-out and setting: next, `CC[C@H](C)[C@@H]1NC(=O)[C@H]([C@@H](C)O)NC(=O)CNC(=O)[C@H](CCC(=O)O)NC(=O)[C@H](CCCCN)NC(=O)[C@H](CC(C)C)NC(=O)[C@H](Cc2ccccc2)NC(=O)[C@H](CCCCN)NC(=O)[C@@H]2CSSC[C@H](NC(=O)[C@@H](N)CCC(=O)O)C(=O)N[C@@H](CCC(=O)O)C(=O)N[C@@H](CO)C(=O)NCC(=O)N3CCC[C@H]3C(=O)N[C@H]3CSSC[C@@H]4NC(=O)[C@H](Cc5ccc(O)cc5)NC(=O)[C@H](CC(=O)O)NC(=O)[C@H](CC(=O)O)NC(=O)[C@H](CCSC)NC(=O)[C@H](CC(=O)O)NC(=O)[C@H](CC(=O)O)NC(=O)CNC(=O)[C@H](CCCNC(=N)N)NC(=O)[C@H](C)NC(=O)[C@H](CCCNC(=N)N)NC(=O)[C@H](CCCCN)NC(=O)[C@H](CSSC[C@@H](C(N)=O)NC(=O)[C@H](CC(=O)O)NC(=O)[C@H](CSSC[C@H](NC3=O)C(=O)N[C@@H](CCCNC(=N)N)C(=O)N[C@@H](CC(N)=O)C(=O)N2)NC(=O)[C@H]([C@@H](C)O)NC(=O)[C@H](CCCCN)NC(=O)CNC(=O)[C@H](CC(N)=O)NC4=O)NC1=O` [Example 19, (1-39)-echistatin amide] (H-ECESGPCCRNCKFLKEGTICKRARGDDMDDYCNGKTCDC-NH2; disulfide 2-11, 7-32, 8-37, 20-39): 0.327 µM; `CC[C@H](C)[C@@H]1NC(=O)[C@H]([C@@H](C)O)NC(=O)CNC(=O)[C@H](CCC(=O)O)NC(=O)[C@H](CCCCN)NC(=O)[C@H](CC(C)C)NC(=O)[C@H](Cc2ccccc2)NC(=O)[C@H](CCCCN)NC(=O)[C@@H]2CSSC[C@H](NC(=O)[C@@H](N)CCC(=O)O)C(=O)N[C@@H](CCC(=O)O)C(=O)N[C@@H](CO)C(=O)NCC(=O)N3CCC[C@H]3C(=O)N[C@H]3CSSC[C@@H]4NC(=O)[C@H](Cc5ccc(O)cc5)NC(=O)[C@H](CC(=O)O)NC(=O)[C@H](CC(=O)O)NC(=O)[C@H](CCSC)NC(=O)[C@H](CC(=O)O)NC(=O)[C@H](CC(=O)O)NC(=O)CNC(=O)[C@H](CCCNC(=N)N)NC(=O)[C@H](C)NC(=O)[C@H](CCCNC(=N)N)NC(=O)[C@H](CCCCN)NC(=O)[C@H](CSSC[C@@H](C(=O)O)NC(=O)[C@H](CC(=O)O)NC(=O)[C@H](CSSC[C@H](NC3=O)C(=O)N[C@@H](CCCNC(=N)N)C(=O)N[C@@H](CC(N)=O)C(=O)N2)NC(=O)[C@H]([C@@H](C)O)NC(=O)[C@H](CCCCN)NC(=O)CNC(=O)[C@H](CC(N)=O)NC4=O)NC1=O` [Example 20, (1-39)-echistatin] (H-ECESGPCCRNCKFLKEGTICKRARGDDMDDYCNGKTCDC-OH; disulfide 2-11, 7-32, 8-37, 20-39): 0.8 µM; “H-ECESGPCCRNCKFLKEGTICKRPRGDFLDDYCNGKTCDCPRNPHKGPAT-OH (disulfide 2-11, 7-32, 8-37, 20-39) [Example 12, pro 23, phe 27, leu 28-echistatin]”: 0.026 µM.
For “H-ECESGPCCRNCKFLKEGTICKRARGDFMDDYCNGKTCDCPRNPHKGPAT-OH (disulfide 2-11, 7-32, 8-37, 20-39) [Example 9, phe 27-echistatin]”, the IC50 came to 0.013 µM.
Regarding “H-ECESGPCCRNCKFLKEGTICKRARGDDFDDYCNGKTCDCPRNPHKGPAT-OH (disulfide 2-11, 7-32, 8-37, 20-39) [Example 14, phe 28-echistatin]”, the IC50 was 0.038 µM.
For “H-ECESGPCCRNCKFLKEGTICKRARGDDMDDYCNGKTCDCPR-NH2 (disulfide 2-11, 7-32, 8-37, 20-39) [Example 16, (1-41)-echistatin amide]”, the IC50 worked out at 0.066 µM.
Take “H-ECESGPCCRNCKFLKEGTICKNARGDFLDDYCNGKTCDCPRNPHKGPAT-OH (disulfide 2-11, 7-32, 8-37, 20-39) [Example 15, asn 22, phe 27, leu 28-echistatin]”: the IC50 is 0.038 µM.
The same measure, in the same setting: to “ECESGPCCRNCKFLKEGTICKRARGDD[Met(O)]DDYCNGKTCDCPRNPHKGPAT (disulfide 2-11, 7-32, 8-37, 20-39) [Example 18, met SO 28-echistatin]” belongs 0.088 µM.
`CC[C@H](C)[C@@H]1NC(=O)[C@H]([C@@H](C)O)NC(=O)CNC(=O)[C@H](CCC(=O)O)NC(=O)[C@H](CCCCN)NC(=O)[C@H](CC(C)C)NC(=O)[C@H](Cc2ccccc2)NC(=O)[C@H](CCCCN)NC(=O)[C@@H]2CSSC[C@H](NC(=O)[C@@H](N)CCC(=O)O)C(=O)N[C@@H](CCC(=O)O)C(=O)N[C@@H](CO)C(=O)NCC(=O)N3CCC[C@H]3C(=O)N[C@H]3CSSC[C@@H]4NC(=O)[C@H](Cc5ccc(O)cc5)NC(=O)[C@H](CC(=O)O)NC(=O)[C@H](CC(=O)O)NC(=O)[C@H](CC(C)C)NC(=O)[C@H](CC(=O)O)NC(=O)[C@H](CC(=O)O)NC(=O)CNC(=O)[C@H](CCCNC(=N)N)NC(=O)[C@H](C)NC(=O)[C@H](CCCNC(=N)N)NC(=O)[C@H](CCCCN)NC(=O)[C@H](CSSC[C@@H](C(=O)N5CCC[C@H]5C(=O)N[C@@H](CCCNC(=N)N)C(=O)N[C@@H](CC(N)=O)C(=O)N5CCC[C@H]5C(=O)N[C@@H](Cc5c[nH]cn5)C(=O)N[C@@H](CCCCN)C(=O)NCC(=O)N5CCC[C@H]5C(=O)N[C@@H](C)C(=O)N[C@H](C(=O)O)[C@@H](C)O)NC(=O)[C@H](CC(=O)O)NC(=O)[C@H](CSSC[C@H](NC3=O)C(=O)N[C@@H](CCCNC(=N)N)C(=O)N[C@@H](CC(N)=O)C(=O)N2)NC(=O)[C@H]([C@@H](C)O)NC(=O)[C@H](CCCCN)NC(=O)CNC(=O)[C@H](CC(N)=O)NC4=O)NC1=O` [Example 13, leu 28-echistatin]: the IC50 was found to be 0.034 µM.
In the case of “H-ECESGPCCRNCKFLKEGTICKRARGDWMDDYCNGKTCDCPRNPHKGPAT-OH (disulfide 2-11, 7-32, 8-37, 20-39) [Example 11, trp 27-echistatin]”, the IC50 was found to be 0.017 µM.

The same assay, now with this note: rate of human platelet aggregation; platelets from 2-4 donors, duplicate; Table 4; read-out: IC₅₀(µM)(95% CONFIDENCE LIMITS).
As to “H-ECESGPCCRNCKFLKEGTICKRARGDDMDDYCNGKTCDCPRNPHKGPAT-OH (disulfide 2-11, 7-32, 8-37, 20-39) [Synthetic Echistatin, echistatin]”, the IC50 was 0.033 µM.
